# Laboratory results from US10471046B2, “Method for treating, preventing, or reducing the risk of skin infection” (Melinta Subsidiary Corp., priority 2014, dated 2019).
# Tested on: S. aureus
# Test: Minimum inhibitory concentrations (MICs) for S. aureus of exemplary compounds (Table 2)
# Assay type: cell-based
# Details: Staphylococcus aureus, minimum inhibitory concentrations for S. aureus; read-out: MICs
# How it was run: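 Growth of S. aureus in media with or without compound, by broth microdilution in microtiter trays following NCCLS M7-A5 guidelines. Values are MICs in μg/mL.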
row,SMILES,MIC [µg/mL]
1,"O=C(CCl)NC[C@H]1CN(c2ccc(-c3ccc(Cn4cnnn4)cc3)c(F)c2)C(=O)O1 [Compound 1033, 2-Chloro-N-[3-(2-fluoro-4′-tetrazol-1-ylmethyl-biphenyl-4-yl)-2-oxo-oxazolidin-5-(S)-ylmethyl]-acetamide]",0.25
2,"CC(=O)NC[C@H]1CN(c2ccc(-c3cc(C)c(CNCc4ccncc4)cc3C)c(F)c2)C(=O)O1 [Compound 4176, N-[3-(2-Fluoro-2′,5′-dimethyl-4′-{[(pyridin-4-ylmethyl)-amino]-methyl}-biphenyl-4-yl)-2-oxo-oxazolidin-5-(S)-ylmethyl]-acetamide]",128
3,"CC(=O)NC[C@H]1CN(c2ccc(-c3ccc(CNC(=O)[C@@H]4C[C@@H](O)CN4C(=O)OC(C)(C)C)cc3)c(F)c2)C(=O)O1 [Compound 4311, 2-({4′-[5-(S)-(Acetylamino-methyl)-2-oxo-oxazolidin-3-yl]-2′-fluoro-biphenyl-4-ylmethyl}-carbamoyl)-4-(R)-hydroxy-pyrrolidine-1-(S)-carboxylic acid tert-butyl ester]",16
4,"CC(=O)NC[C@H]1CC(c2ccc(-c3ccc(CNCc4ccncc4)cc3)nc2)=NO1 [Compound 4133, N-{3-[6-(4-{[(Pyridin-4-ylmethyl)-amino]-methyl}-phenyl)-pyridin-3-yl]-4,5-dihydro-isoxazol-5-(R)-ylmethyl}-acetamide]",128
5,"CC(=O)NC[C@H]1CN(c2ccc(-c3ccc(CNS(=O)(=O)c4ccc(N5CCOCC5)nc4)cc3)c(F)c2)C(=O)O1 [Compound 2044, N-(3-{2-Fluoro-4′-[(6-morpholin-4-yl-pyridine-3-sulfonylamino)-methyl]-biphenyl-4-yl}-2-oxo-oxazolidin-5-(S)-ylmethyl)-acetamide]",128
6,"CC(=O)NC[C@H]1CN(c2ccc(-c3ccc(C(NC(=O)OCc4ccccc4)c4nnn(C)n4)cc3)c(F)c2)C(=O)O1 (mixture of isomers) [Compound 1041, [{4′-[5-(S)-(Acetylamino-methyl)-2-oxo-oxazolidin-3-yl]-2′-fluoro-biphenyl-4-yl}-(2-methyl-2H-tetrazol-5-(R/S)-yl)-methyl]-carbamic acid benzyl ester]",1
7,"COc1nc(C)c(/C=C/C(=O)NCc2ccc(-c3ccc(N4C[C@H](CNC(C)=O)OC4=O)cc3F)cc2)c(O)n1 [Compound 4004, N-{4′-[5-(S)-(Acetylamino-methyl)-2-oxo-oxazolidin-3-yl]-2′-fluoro-biphenyl-4-ylmethyl}-3-(4-hydroxy-2-methoxy-6-methyl-pyrimidin-5-yl)-acrylamide]",2
8,"CC(=O)NC[C@H]1CN(c2ccc(-c3ccc(CS(=O)(=O)c4nnnn4C)cc3)c(F)c2)C(=O)O1 [Compound 2024, N-{3-[2-Fluoro-4′-(1-methyl-1H-tetrazole-5-sulfonylmethyl)-biphenyl-4-yl]-2-oxo-oxazolidin-5-(S)-ylmethyl}-acetamide]",0.25
9,"CC(=O)NC[C@H]1CN(c2ccc(-c3ccc(CN(CCCF)OCc4ccccc4)cc3)c(F)c2)C(=O)O1 [Compound 4265, N-[3-(4′-{[Benzyloxy-(3-fluoro-propyl)-amino]-methyl}-2-fluoro-biphenyl-4-yl)-2-oxo-oxazolidin-5-(S)-ylmethyl]-acetamide]",4
10,"CC(=O)NC[C@H]1CN(c2ccc(-c3ccc(NC(=O)NCc4ccccn4)cc3)c(F)c2)C(=O)O1 [Compound 6005, N-{3-[2-Fluoro-4′-(3-pyridin-2-ylmethyl-ureido)-biphenyl-4-yl]-2-oxo-oxazolidin-5-(S)-ylmethyl}-acetamide]",1
11,"CC(=O)NC[C@H]1CN(c2ccc(-c3ccc(C(NC(=O)OCc4ccccc4)c4nn[nH]n4)cc3)c(F)c2)C(=O)O1 (mixture of isomers) [Compound 1039, [{4′-[5-(S)-(Acetylamino-methyl)-2-oxo-oxazolidin-3-yl]-2′-fluoro-biphenyl-4-yl}-(2H-tetrazol-5-(R/S)-yl)-methyl]-carbamic acid benzyl ester]",128

# Now from value to molecule:
row,MIC [µg/mL],SMILES
1,1,"CC(=O)NC[C@H]1CN(c2ccc(-c3ccc(CCNCc4ccncc4)cc3)c(F)c2)C(=O)O1 [Compound 4149, N-[3-(2-Fluoro-4′-{2-[(pyridin-4-ylmethyl)-amino]-ethyl}-biphenyl-4-yl)-2-oxo-oxazolidin-5-(S)-ylmethyl]-acetamide]"
2,4,"CC(=O)NC[C@H]1CN(c2ccc(-c3ccc(CNC(=O)C(N)Cc4cccnc4)cc3)c(F)c2)C(=O)O1 (stereo in doubt) [Compound 4310, N-{4′-[5-(S)-(Acetylamino-methyl)-2-oxo-oxazolidin-3-yl]-2′-fluoro-biphenyl-4-ylmethyl}-2-(R)-amino-3-pyridin-3-yl-propionamide]"
3,2,"CC(=O)NC[C@H]1CN(c2ccc(-c3ccc(CNC(=O)Nc4ccncc4)cc3)c(F)c2)C(=O)O1 [Compound 5012, N-(3-{2-Fluoro-4′-[(3-pyridin-4-yl-ureido)-methyl]-biphenyl-4-yl}-2-oxo-oxazolidin-5-(S)-ylmethyl)-acetamide]"
4,2,"CC(=O)NC[C@H]1CN(c2ccc(-c3ccc(Cn4cnc(CO)c4)cc3)c(F)c2)C(=O)O1 [Compound 1050, N-{3-[2-Fluoro-4′-(4-hydroxymethyl-imidazol-1-ylmethyl)-biphenyl-4-yl]-2-oxo-oxazolidin-5-(S)-ylmethyl}-acetamide]"
5,0.5,"CC(=O)NC[C@H]1CN(c2ccc(-c3ccc(CNCc4ncon4)cc3)c(F)c2)C(=O)O1 [Compound 4233, N-[3-(2-Fluoro-4′-{[([1,2,4]oxadiazol-3-ylmethyl)-amino]-methyl}-biphenyl-4-yl)-2-oxo-oxazolidin-5-(S)-ylmethyl]-acetamide]"
6,2,"CC(=O)NC[C@H]1CN(c2ccc(-c3ccc(C[S+]([O-])c4ccncc4)cc3)c(F)c2)C(=O)O1 (stereo partly drawn) [Compound 2022, N-{3-[2-Fluoro-4′-(pyridine-4-sulfinylmethyl)-biphenyl-4-yl]-2-oxo-oxazolidin-5-(S)-ylmethyl}-acetamide]"
7,0.25,"CC(=O)NC[C@H]1CN(c2ccc(-c3ccc(CNCc4nnn(C)n4)cc3)c(F)c2)C(=O)O1 [Compound 4284, N-[3-(2-Fluoro-4′-{[(2-methyl-2H-tetrazol-5-ylmethyl)-amino]-methyl}-biphenyl-4-yl)-2-oxo-oxazolidin-5-(S)-ylmethyl]-acetamide]"
8,2,"CC(=O)NC[C@H]1CN(c2ccc(-c3ccc(CNOCc4ccccc4)cc3)c(F)c2)C(=O)O1 [Compound 4263, N-{3-[4′-(Benzyloxyamino-methyl)-2-fluoro-biphenyl-4-yl]-2-oxo-oxazolidin-5-(S)-ylmethyl}-acetamide]"
9,2,"CC(=O)NC[C@H]1CN(c2ccc(-c3ccc(CNCc4ccc(CO)o4)cc3)c(F)c2)C(=O)O1 [Compound 4075, N-[3-(2-Fluoro-4′-{[(5-hydroxymethyl-furan-2-ylmethyl)-amino]-methyl}-biphenyl-4-yl)-2-oxo-oxazolidin-5-(S)-ylmethyl]-acetamide]"
10,2,"CC(=O)NC[C@H]1CN(c2ccc(-c3ccc(CNC(=O)[C@H](N)c4ccc(F)cc4)cc3)c(F)c2)C(=O)O1 [Compound 4297, N-{4′-[5-(S)-(Acetylamino-methyl)-2-oxo-oxazolidin-3-yl]-2′-fluoro-biphenyl-4-ylmethyl}-2-(R)-amino-2-(4-fluoro-phenyl)-acetamide]"
11,0.5,"CC(=O)NC[C@H]1CN(c2ccc(-c3ccc(CNCCSc4nnc[nH]4)cc3)c(F)c2)C(=O)O1 [Compound 5005, N-[3-(2-Fluoro-4′-{[2-(4H-[1,2,4]triazol-3-ylsulfanyl)-ethylamino]-methyl}-biphenyl-4-yl)-2-oxo-oxazolidin-5-(S)-ylmethyl]-acetamide]"
12,0.25,"CC(=O)NC[C@H]1CN(c2ccc(-c3ccc(CSc4nncs4)cc3)c(F)c2)C(=O)O1 [Compound 2029, N-{3-[2-Fluoro-4′-([1,3,4]thiadiazol-2-ylsulfanylmethyl)-biphenyl-4-yl]-2-oxo-oxazolidin-5-(S)-ylmethyl}-acetamide]"
13,1,"CC(=O)NC[C@H]1CN(c2ccc(-c3ccc(C[S+]([O-])Cc4ccccn4)cc3)c(F)c2)C(=O)O1 (stereo partly drawn) [Compound 4217, N-{3-[2-Fluoro-4′-(pyridin-2-ylmethanesulfinylmethyl)-biphenyl-4-yl]-2-oxo-oxazolidin-5-(S)-ylmethyl}-acetamide]"
14,2,"CC(=O)NC[C@H]1CN(c2ccc(-c3ccc(CNCc4nc(C)no4)cc3)c(F)c2)C(=O)O1 [Compound 4140, N-[3-(2-Fluoro-4′-{[(3-methyl-[1,2,4]oxadiazol-5-ylmethyl)-amino]-methyl}-biphenyl-4-yl)-2-oxo-oxazolidin-5-(S)-ylmethyl]-acetamide]"
15,4,"CC(=O)NC[C@H]1CN(c2ccc(-c3ccc(CN(C)C(=O)c4cccn4C)cc3)c(F)c2)C(=O)O1 [Compound 4051, 1-Methyl-1H-pyrrole-2-carboxylic acid {4′-[5-(S)-(acetylamino-methyl)-2-oxo-oxazolidin-3-yl]-2′-fluoro-biphenyl-4-ylmethyl}-methyl-amide]"
16,1,"CC(=O)NC[C@H]1CN(c2ccc(-c3ccc(CNCc4nccs4)cc3)c(F)c2)C(=O)O1 [Compound 4074, N-[3-(2-Fluoro-4′-{[(thiazol-2-ylmethyl)-amino]-methyl}-biphenyl-4-yl)-2-oxo-oxazolidin-5-(S)-ylmethyl]-acetamide]"
17,32,"CC(=O)NC[C@H]1CN(c2ccc(-c3ccc(CNS(=O)(=O)c4ccc(C(F)(F)F)cc4)cc3)c(F)c2)C(=O)O1 [Compound 2058, N-(3-{2-Fluoro-4′-[(4-trifluoromethyl-benzenesulfonylamino)-methyl]-biphenyl-4-yl}-2-oxo-oxazolidin-5-(S)-ylmethyl)-acetamide]"

# Same assay, conditions: Staphylococcus aureus, read-out: MICs
row,SMILES,MIC [µg/mL]
1,"CC(=O)NC[C@H]1CN(c2ccc(-c3ccc(Cc4csc(NCC5CCCO5)n4)cc3)c(F)c2)C(=O)O1 (stereo partly drawn) [Compound 1020, N-[3-(2-Fluoro-4′-{2-[(tetrahydro-furan-2-ylmethyl)-amino]-thiazol-4-ylmethyl}-biphenyl-4-yl)-2-oxo-oxazolidin-5-(S)-ylmethyl]-acetamide]",1
